This note sets out measurements from article PMC9007951, “Systematically evaluating DOTATATE and FDG as PET immuno-imaging tracers of cardiovascular inflammation” (Scientific Reports, 2022).

Molecules are shown by their SMILES.

One data set has as its system atherosclerotic rabbits. The experiment in a line: In vivo PET/MR imaging of aortic inflammation in rabbits. As to conditions: PET/MRI, median. Further details: species or system New Zealand White rabbits. An excerpt: For the rabbit studies, 3 months old male New Zealand White (NZW) rabbits (N = 47) were purchased from Charles River Laboratories (Wilmington, MA). Randomly assigned control rabbits (N = 11) were kept on chow diet and imaged with PET/MR. Among these some animals were euthanized for biodistribution assays (N = 6) or used for time-activity characterization of aorta signal (N = 3). For the atherosclerosis model, remaining rabbits (N = 36) were placed on Western diet (initial 8 weeks on regular chow enriched with 0.3% cholesterol and 4.7% coconut oil, and the remaining time period on 0.15% enriched cholesterol diet from Research diets, Inc. Brunswick, NJ). In order to induce atherosclerotic lesions, these rabbits were subjected to two endothelial denudations of the aorta through the right and left femoral artery at 2 and 6 weeks after diet initiation, respectively, as described previously. Briefly, femoral artery angioplasty was performed under fluoroscopic guidance using a 4F-Fogarty embolectomy catheter. Once catheter is inserted, catheter is positioned in the thoracic descending aorta region. The balloon was then inflated to 2 atm. Catheter is then pulled back over the entire length of the aorta down to the iliac bifurcation, and the pullback procedure is repeated for two additional times. Catheter is then removed, and femoral artery is ligated. Rabbits with atherosclerosis were imaged 4 months after diet initiation (N = 36). Among these animals some were euthanized for ex vivo biodistribution analyses (N = 9), used for time-activity characterization of aorta signal (N = 3) or near infra-red imaging ([…]). The remaining atherosclerotic rabbits were fed a Western diet for an additional 3 months (N = 9) to advance atherosclerosis. At the end of the 3-month period, these rabbits were imaged and euthanized.
In vivo imaging in rabbits was performed on a 3 Tesla Biograph mMR (Siemens, Erlangen, Germany) Positron Emission Tomography/Magnetic Resonance Imaging (PET/MRI) clinical scanner. To establish the optimal imaging time-point for [^68Ga]Ga-DOTATATE aortic imaging in this animal model, 5 rabbits underwent dynamic PET imaging for 3 h immediately after injection of approximately 190 MBq of the tracer. Rabbits where injected intravenously via the ear vein with approximately 190 MBq of either [^18F]F- FDG or [^68Ga]Ga-DOTATATE. Rabbits undergoing [^18F]F-FDG scans were fasted for 3–4 h before injection to avoid tracer uptake in the bowels, as previously validated. […]
Using OsiriX v5.6 software (OsiriX Foundation, Geneva, Switzerland), regions of interest (ROIs) were drawn to determine organ radioactivity concentration. […]

The nature of data set [1]: Ex vivo autoradiography of heart and aorta. It counts as in vivo, mice. Conditions: for ratio between the signal in infarcted and remote myocardium: MI mice, N = 4 per group. Here is the method:
Tissues (heart and aorta) were placed in a film cassette against a phosphorimaging plate (BASMS-2325, Fujifilm) at − 20 °C to determine the regional radioactivity distribution. Exposure time was optimized to dose, tracer, and tissue uptake differences. Tissues from the heart of [^18F]F-FDG injected animals were exposed for 5 min, [^18F]F-FDG infused aortas were exposed for 30 min and tissues from animals in the [^64Cu]Cu-DOTATATE group were exposed for 60 min. The plates were read at a pixel resolution of 25 μm with a Typhoon 7000IP plate reader (GE Healthcare, Pittsburgh, PA). Images were analyzed using ImageJ software v1.52 (Madison, WI).

On to `OC[C@H]1OC(O)[C@H]([18F])[C@@H](O)[C@@H]1O` (stereo partly drawn) [[^18F]F-FDG, [^18F]F-fluorodeoxyglucose], for which the SUVmax abdominal aorta amounted to 0.446 in the data set on atherosclerotic rabbits (athero4mo rabbits, circulation 120 min ([^68Ga]Ga-DOTATATE, N = 32) or 180 min ([^18F]F-FDG, N = 27)); 0.515 with atherosclerotic rabbits (athero7mo rabbits, N = 7); 0.349 with atherosclerotic rabbits (control rabbits, circulation 120 min ([^68Ga]Ga-DOTATATE, N = 10) or 180 min ([^18F]F-FDG, N = 11)). In addition, the “ratio between the signal in infarcted and remote myocardium” value in data set [1] is ~1.
As for `C[C@@H](O)[C@H](NC(=O)[C@@H]1CSSC[C@H](NC(=O)[C@@H](Cc2ccccc2)NC(=O)CN2CCN(CC(=O)O)CCN(CC(=O)O)CCN(CC(=O)O)CC2)C(=O)N[C@@H](Cc2ccc(O)cc2)C(=O)N[C@H](Cc2c[nH]c3ccccc23)C(=O)N[C@@H](CCCCN)C(=O)N[C@@H]([C@@H](C)O)C(=O)N1)C(=O)O` [[^64Cu]Cu-DOTATATE, metal not drawn], in data set [1], the “ratio between the signal in infarcted and remote myocardium” value is given as “approximately 2”. Moreover, the “signal in atherosclerotic plaques compared to healthy (no plaque) areas of the aorta” value in data set [1] (atherosclerotic mice, N = 4) is “twofold higher”.
